Like-named read-outs stand apart in the source and are kept apart here. Blank lines part the entries; values can stand above or below the molecule they belong to. Where a SMILES comes first, the peptide text is derived from it. Where no end group is shown, it is not given here.
Assays:
[1] = tested on: cells expressing MT1-MMP; assay: Flow cytometry binding to cells; details: flow cytometry analysis
Excerpt: (§1) Based on our studies of the structure-function relationship of the MT1-MMP hemopexin (PEX)-like domain, we designed and synthesized peptides mimicking 8 amino acids of the outermost β strand of blades I, II, III and IV from the PEX domain, named IS4-8 ([…]) (SEQ ID NO:01), IIS4-8 ([…]) (SEQ ID NO:02), and IVS4-8 ([…]) (SEQ ID NO:03), respectively. Corresponding scrambled peptides were synthesized as controls. […] We further designed truncated forms of IS4-8 and IVS-8 peptides from the N- and C-terminus of the peptides. The C-terminal 5 amino acids of the IS4-8, named IS4-5 (GYPMP) (SEQ ID NO:04) is essential for inhibition of functional MT1-MMP. […] Thus, the PEX domain of MT1-MMP is a high-specificity target for interference with MT1-MMP-induced cancer cell invasion and for identification of cancer cells expressing MT1-MMP. These novel bi-functional inhibitory peptides will provide specificity with limited systemic toxicity.

[2] = tested on: GFP expressing MDA-MB-435 cells; assay: Mammary fat pad tumor growth and lung metastasis model; type: in vivo, immunodeficient female mice; details: 20 mg/kg/day i.p. and intratumoral alternatively; after twelve weeks
Procedure: 2×10^6 GFP expressing MDA-MB-435 cells were injected in the mammary fat pad of immunodeficient female mice followed by administering 20 mg/kg/day of specific and scrambled peptides via i.p. and intratumoral injection, alternatively. Primary tumor size was monitored over a 10-week time course. Inhibitory peptides had no effect on tumor growth (A). After twelve weeks, the mice were sacrificed and the organs were pathologically examined. The lungs were sliced into 3 mm thick sections. The incidence of lung metastasis was assessed by examining metastatic tumors in the lungs (B). The number (C) and size (D) of metastasized tumors in the lungs were microscopically counted based on GFP expression and measured using Nikon NIS Elements Imaging software, respectively.

[3] = tested on: MT1-MMP-mediated cell migration (LNCaP); assay: FITC-fibronectin degradation assay and Transwell chamber migration assay with GST-MTPEX; type: cell-based
Excerpt: Our results and others emphasized the critical role of the PEX domain of MT1-MMP in cells migration (8,57). […] As proof of this hypothesis, we generated chimeric cDNAs encoding GST and GST-MTPEX chimera.

[4] = tested on: MT1-GFP expressing LNCaP cells; assay: FITC-labeled Matrigel degradation in the presence of proMMP-2; type: cell-based, human
Excerpt: To examine the role of MT1-MMP in invasion through basement membrane in an in vitro assay, we labeled Matrigel, a soluble basement membrane matrix from the EHS tumor with FITC. Western blotting using anti-type IV collagen and anti-laminin V antibodies confirmed that type IV collagen and laminin V remained intact in FITC-labeled Matrigel. Using FITC-labeled Matrigel-coated coverslips, LNCaP cells producing MT1-GFP were examined for Matrigel degradation. MT1-MMP expressing LNCaP cells readily degraded the FITC-labeled substrate (depicted by loss of fluorescence-labeled Matrigel in FIG. 31A-a).

[5] = tested on: human MDA-MB-231 breast cancer cell
[6] = tested on: cell migration induced by MT6-MMP; assay: Cell migration induced by MT6-MMP (specificity); type: cell-based
Excerpt: as §1
(§2) The term “specifically reduces cell migration that is mediated by MT1-MMP” when in reference to a composition means that the composition reduces cell migration that is mediated by MT1-MMP, in the absence of a reduction of cell migration that is mediated by MMP-9 and/or MT3-MMP and/or MT6-MMP (FIG. 7).

[7] = tested on: human MDA-MB-231, and -435 breast cancer cells (-435); assay: Cell migration of MDA-MB-435 cells expressing endogenous MT1-MMP; type: cell-based
Excerpt: as §1

[8] = tested on: COS-1 cells transfected with MT1-MMP cDNA; assay: Cell migration of MT1-MMP transfected COS-1 cells; type: cell-based
Excerpt: as §1

[9] = tested on: human HT1080 fibrosarcoma cells; assay: Cell migration of HT1080 cells expressing endogenous MT1-MMP; type: cell-based
Excerpt: as §1

[10] = tested on: human MDA-MB-231 breast cancer cells; assay: Cell migration of MDA-MB-231 cells expressing endogenous MT1-MMP; type: cell-based
Excerpt: as §1

[11] = tested on: cell migration induced by MMP-9; assay: Cell migration induced by MMP-9 (specificity); type: cell-based
Excerpt: as §1, §2

[12] = tested on: human breast cancer MCF-7 cells ectopically expressing MT1-MMP; assay: proMMP-2 activation by gelatin zymography of conditioned medium; type: cell-based; details: MCF-7 cells expressing MT1-MMP
Excerpt: The conditioned medium from human breast cancer MCF-7 cells ectopically expressing MT1-MMP in the presence of scrambled peptides or specific peptides was examined by gelatin zymography to determine whether interference with the PEX domain of MT1-MMP by the peptides also affects the proteolytic activity of MT1-MMP.

[13] = tested on: MT1-GFP expressing LNCaP cells; assay: Cell surface E-cadherin shedding; type: cell-based, human
Procedure: To examine if shedding of E-cadherin at cell-cell adherens junctions correlated with loss of cell surface E-cadherin, biotinylation of cell surface proteins followed by streptavdin precipitation and Western blotting using anti-E-cadherin antibody was performed (51).

[14] = tested on: MT1-GFP expressing cells; assay: Combined FITC-labeled fibronectin substrate degradation and phagokinetic assay; type: cell-based
Excerpt: Using FITC-labeled gelatin coated coverslips and engineered MT1-MMP substitution mutations, structure-function relationships of MT1-MMP in cell invasion and migration were studied by domain shuffling experiments (FIG. 32A). As expected, MT1-MMP expressing cells degraded FITC-labeled gelatin and migrated over digested substrate (FIG. 32B). […] To examine the effect of proteolytic activity of MT1-MMP on cell migration, we employed a natural MMP inhibitor, TIMP-2 in combined FITC-labeled substrate degradation assay and phagokinetic assay (54) by coating coverslips with both FIT-labeled fibronectin and colloidal gold particles.

[15] = tested on: MT1-GFP expressing LNCaP cells; assay: Cell scattering in 3D type I collagen gel; type: cell-based, human; details: TIMP-2 10 nM
Excerpt: Although increasing evidence highlight the importance of proteolytic remodeling of the ECM during invasion (65,66), recent reports have challenged this concept showing that the ability of tumor cells to migrate through collagenous barriers by switching to an amoeboid-like form was independent on proteinases (67). This observation, however, was possible due to reversible MMP inhibitors and low concentration of inhibitors (68). […] Employing a 3-dimensional (3D) culture in native type I collagen gel, we examined the cell scattering effect of MT1-GFP. […] GFP-alone expressing LNCaP cells formed spherical aggregates (FIG. 37A-a2-a3), while MT-GFP expressing LNCaP cells presented a scattered distribution in the gels (FIG. 37-b2-b3). H & E staining of frozen sections confirmed this observation (FIG. 37A-a4,b4).

Molecule: biotinylated IS4-5: biotinylated IS4-5 (GYPMP) peptide used for flow cytometry (also: biotinylated, position not given here)
binding to cells expressing MT1-MMP [1]: specifically binds to cells expressing MT1-MMP

Molecule: IVS4: MT1-MMP specific inhibitory IVS4 peptide given to mice in Example 27; probably IVS4-8 (GYPKSALR)
lung metastasis (degree/number of metastasized tumors) [2]: reduced | tumor foci area (size) in the lung [2]: tumor sizes in scramble peptide treated mice were noticeably larger

Molecule: GST-tagged MTPEX protein: purified GST fusion protein of the PEX domain of MT1-MMP
MT1-MMP-mediated cell migration [3]: inhibited MT1-MMP-mediated cell migration | MT1-MMP-mediated cell migration ([3]; listed as MT1-MMPPEX): inhibited MT1-MMP-medicated LNCaP cell migration | MT1-MMP-mediated cell migration ([3]; listed as recombinant MT1-PEX protein): blocked MT1-MMP-mediated cell migration

Molecule: IS4: MT1-MMP specific inhibitory IS4 peptide given to mice in Example 27; length (IS4-8 or IS4-5) not stated (VMDGYPMP)
lung metastasis (degree/number of metastasized tumors) [2]: reduced | tumor foci area (size) in the lung [2]: tumor sizes in scramble peptide treated mice were noticeably larger

Molecule: TIMP-1: recombinant TIMP-1, tissue inhibitor of metalloproteinases used as control inhibitor
cell migration over Matrigel [4]: did not interfere with cell migration | digestion of FITC-labeled Matrigel [4]: partial inhibition of substrate digestion

IC50 [5]: 10000 nM
Molecule: CC(C)C[C@H](NC(=O)[C@H](C)NC(=O)[C@H](CO)NC(=O)[C@H](CCCCN)NC(=O)[C@@H]1CCCN1C(=O)[C@H](Cc1ccc(O)cc1)NC(=O)CN)C(=O)N[C@@H](CCCNC(=N)N)C(=O)O [IVS4-8] (H-GYPKSALR-OH; N-terminus and C-terminus assumed)
cell migration induced by MT6-MMP [6]: do not affect cell migration | cell migration [7]: reduce cell migration | cell migration [8]: reduce cell migration | cell migration [9]: reduce cell migration | cell migration [10]: reduce cell migration | cell migration induced by MMP-9 [11]: do not affect cell migration

IC50 [5]: 1500 nM
Molecule: CSCC[C@H](NC(=O)[C@@H]1CCCN1C(=O)[C@H](Cc1ccc(O)cc1)NC(=O)CN)C(=O)N1CCC[C@H]1C(=O)O [IS4-5, GYPMP] (H-GYPMP-OH; N-terminus and C-terminus assumed)
MT1-MMP-induced proMMP-2 activation [12]: specifically inhibited

IC50 [5]: 1500 nM
Molecule: CSCC[C@H](NC(=O)[C@@H](N)C(C)C)C(=O)N[C@@H](CC(=O)O)C(=O)NCC(=O)N[C@@H](Cc1ccc(O)cc1)C(=O)N1CCC[C@H]1C(=O)N[C@@H](CCSC)C(=O)N1CCC[C@H]1C(=O)O [IS4-8] (H-VMDGYPMP-OH; N-terminus and C-terminus assumed)
cell migration induced by MT6-MMP [6]: do not affect cell migration | MT1-MMP-induced proMMP-2 activation [12]: specifically inhibited | cell migration [7]: reduce cell migration | cell migration [8]: reduce cell migration | cell migration [9]: reduce cell migration | cell migration [10]: reduce cell migration | cell migration induced by MMP-9 [11]: do not affect cell migration

Molecule: tissue inhibitor of matrix metalloproteinase-2 [TIMP-2]
cell surface E-cadherin shedding [13]: interfered with cell surface E-cadherin shedding | substrate degradation (FITC-labeled fibronectin) [14]: interfered with substrate degradation | digestion of FITC-labeled Matrigel [4]: totally abolished the digestion of Matrigel | scattered distribution of cells in type I collagen gel [15]: abolished

Source: patent US9133239B2, “Compositions and methods for inhibiting matrix metalloproteinase (MMP)-mediated cell migration” (THE RESEARCH FOUNDATION FOR THE STATE UNIVERSITY OF NEW YORK, priority 2010, dated 2015)
